Measurements published in patent US20260256751A1, “COMBINATION OF BETA-2-ADRENERGIC RECEPTOR AGONISTS AND GLP-1 RECEPTOR AGONISTS FOR USE IN TREATING HYPERGLYCAEMIA” (ATROGI AB, priority 2023, published 2026).

Assays:
[1] = tested on: differentiated L6-myotubes; assay: Glucose uptake screen (Biological example 1 of WO 2019/053427); type: cell-based; conditions: compound at 10 μM, activity relative to isoproterenol at 10 μM, read-out: Biological example 1 of WO 2019/053427 (GU)
How it was run: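 Rat L6 myoblasts were differentiated into myotubes over 7 days in 2% FBS, then serum-starved overnight. Cells were stimulated with 1×10^−5 M compound plus β2 antagonist ICI-118551 for 1 h 40 min and re-dosed for 20 min in glucose-free medium. Uptake of 50 nM ^3H-2-deoxyglucose over 10 min was counted after NaOH lysis.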

[2] = tested on: differentiated L6-myotubes; assay: cAMP production relative to isoprenaline (Biological example 2 of WO 2019/053427); type: cell-based; conditions: 0.25 h, compound at 10 μM, activity relative to isoproterenol at 10 μM
How it was run: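 Differentiated L6 myotubes stimulated 15 min with test compound or isoprenaline, each at final 1×10^−5 M, in HBSS with 1% BSA, 5 mM HEPES, 1 mM IBMX, pH 7.4. cAMP production by the compound expressed relative to that induced by the same concentration of isoprenaline.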

| SMILES | Emax at 10 µM [1] [%] | Emax at 10 µM [2] [%] |
| --- | --- | --- |
| CC(C)(C[C@H]1CC[C@H](O)CC1)NC[C@H](O)c1cncc(F)c1 [Compound 299, (R)-2-{1,1-dimethyl-2-[(1r,4R)-4-hydroxycyclohexyl]ethylamino}-1-(5-fluoro-3-pyridyl)-1-ethanol] | 50 to 75 | < 25 |
| CO[C@H]1CC[C@H](C(C)(C)NC[C@H](O)c2cncc(F)c2)CC1 [Compound 240, (R)-1-(5-fluoro-3-pyridyl)-2-{1-methyl-1-[(1r,4R)-4-methoxycyclohexyl]ethyl-amino}-1-ethanol] | > 75 | < 25 |
| COc1ccc(CC23CCC([C@@H](O)c4cccc(F)c4)(CC2)N3)cc1 [Compound 400, (S)-(m-fluorophenyl)(4-[(p-methoxyphenyl)methyl]-7-azabicyclo[2.2.1]hept-1-yl}methanol] | 50 to 75 | < 25 |
| COC(=O)[C@H]1CC[C@@H](CC(C)(C)NC[C@H](O)c2cccc(F)c2)CC1 [Compound 327, methyl (1S,4s)-4-{2-[(R)-2-(m-fluorophenyl)-2-hydroxyethylamino]-2-methylpropyl}cyclohexanecarboxylate] | > 75 | < 25 |
| CS(=O)(=O)N(Cc1ccccc1)c1ccc(CC23CCC([C@@H](O)c4cccc(F)c4)(CC2)N3)cc1 [Compound 472, (S)-[4-({p-[(benzyl)-N-mesylamino]phenyl}methyl)-7-azabicyclo[2.2.1]hept-1-yl](m-fluorophenyl)methanol] | 25 to 50 | < 25 |
| CC(C)(NC[C@H](O)c1cccc(F)c1)[C@H]1CC[C@H](OCC(=O)O)CC1 [Compound 402, [(1R,r)-4-{1-[(R)-2-(m-fluorophenyl)-2-hydroxyethylamino]-1-methylethyl}cyclohexyloxy]acetic acid] | 50 to 75 | < 25 |
| CC12CC(C1)[C@H]([C@@H](O)c1cccc(Cl)c1)N2 [Compound 208, (S)-{(R)-1-methyl-2-azabicyclo[2.1.1]hex-3-yl}(m-chlorophenyl)methanol] | 50 to 75 | < 25 |
| O[C@@H](CNCC[C@H]1CC[C@@H](O)CC1)c1cccc(F)c1 [Compound 297, (R)-1-(m-fluorophenyl)-2-{2-[(1s,4S)-4-hydroxycyclohexyl]ethylamino}-1-ethanol] | 50 to 75 | < 25 |
| O[C@@H](c1cccc(F)c1)C12CCC(Cc3ccc(F)cc3)(CC1)N2 [Compound 412, (S)-(m-fluorophenyl){4-[(p-fluorophenyl)methyl]-7-azabicyclo[2.2.1]hept-1-yl}methanol] | 50 to 75 | < 25 |
| O[C@@H](c1cccc(F)c1)[C@H]1CC[C@H](Cc2ccc(Cl)cc2)N1 [Compound 394, (S)-{(2R,5R)-5-[(p-chlorophenyl)methyl]-2-pyrrolidinyl}(m-fluorophenyl)methanol] | 50 to 75 | < 25 |
| CCCCNCC(O)c1ccc(O)cc1 (centres unmarked) [Compound 1, 2-(butylamino)-1-(p-hydroxyphenyl)-1-ethanol] | > 75 | < 25 |
| CC(C)(C[C@H]1CC[C@H](NS(C)(=O)=O)CC1)NC[C@H](O)c1cccc(F)c1 [Compound 382, (R)-2-{1,1-dimethyl-2-[(1r,4R)-4-(mesylamino)cyclohexyl]ethylamino}-1-(m-fluorophenyl)-1-ethanol] | > 75 | 25 to 50 |
| CC1(C)CC[C@H]([C@@H](O)c2cccc(N)c2F)N1 [Compound 226, (S)-[(R)-5,5-dimethyl-2-pyrrolidinyl](3-amino-2-fluorophenyl)methanol] | 25 to 50 | < 25 |
| C[C@H]1CC[C@@H]([C@@H](O)c2ccccc2)N1 (racemic) [Compound 39, Racemic mixture of (R)-[(2R,5R)-5-methyl-2-pyrrolidinyl]phenylmeth-anol and (S)-[(2S,5S)-5-methyl-2-pyrrolidinyl]phenylmeth-anol] | 50 to 75 | < 25 |
| CC1(NC[C@H](O)c2cccc(F)c2)CCC1 [Compound 83, (R)-1-(m-fluorophenyl)-2-(1-methylcyclobutylamino)-1-ethanol] | > 75 | 25 to 50 |
| CO[C@H]1CCC[C@@H](C(C)(C)NC[C@H](O)c2cccc(F)c2)C1 [Compound 256] | > 75 | 25 to 50 |
| CS(=O)(=O)N(Cc1ccccc1)c1cccc(CC23CCC([C@H](O)c4cccc(F)c4)(CC2)N3)c1 [Compound 513, (R)-[4-({m-[(benzyl)-N-mesylamino]phenyl}methyl)-7-azabicyclo[2.2.1]hept-1-yl](m-fluorophenyl)methanol] | 25 to 50 | < 25 |

| SMILES | Emax at 10 µM [1] [%] | Emax at 10 µM [2] [%] |
| --- | --- | --- |
| CCC[C@H]1CC[C@H]([C@H](O)c2cccc(F)c2)N1 [Compound 124, (R)-[(2R,5S)-5-propyl-2-pyrrolidinyl](m-fluorophenyl)methanol] | 50 to 75 | < 25 |
| CCC[C@@H]1CC[C@H]([C@H](O)c2cccc(F)c2)N1 [Compound 58, (R)-[(2R,5R)-5-propyl-2-pyrrolidinyl](m-fluorophenyl)methanol] | > 75 | 25 to 50 |
| CNS(=O)(=O)[C@H]1CC[C@@H](CC(C)(C)NC[C@H](O)c2cncc(F)c2)CC1 [Compound 495, (R)-2-{1,1-dimethyl-2-[(1s,4S)-4-(methylaminosulfonyl)cyclohexyl]ethylamino}-1-(5-fluoro-3-pyridyl)-1-ethanol] | 50 to 75 | < 25 |
| CC(C)(C[C@H]1CC[C@H](N)CC1)NC[C@H](O)c1cccc(F)c1 [Compound 371, (R)-2-{1,1-dimethyl-2-[(1r,4R)-4-aminocyclohexyl]ethylamino}-1-(m-fluorophenyl)-1-ethanol] | > 75 | < 25 |
| CO[C@@H]1CCC[C@H](C(C)(C)NC[C@H](O)c2cccc(F)c2)C1 [Compound 255, (R)-2-{1-[(1S,3R)-3-methoxycyclohexyl]-1-methylethylamino}-1-(m-fluorophenyl)-1-ethanol] | > 75 | < 25 |
| CC(C)(C[C@H]1CC[C@H](NC(=O)C(F)(F)F)CC1)NC[C@H](O)c1cccc(F)c1 [Compound 433, N-[(1R,4r)-4-{2-[(R)-2-(m-fluorophenyl)-2-hydroxyethylamino]-2-methylpropyl}cyclohexyl]trifluoroacetamide] | > 75 | 25 to 50 |
| CC(C)(C[C@H]1CC[C@@H](N)CC1)NC[C@@H](O)c1cccc(C#N)n1 [Compound 416, 6-[(R)-2-{1,1-dimethyl-2-[(1s,4S)-4-aminocyclohexyl]ethylamino}-1-hydroxyethyl]-2-pyridinecarbonitrile] | 50 to 75 | < 25 |
| CO[C@H]1CCC[C@@H](C(C)(C)NC[C@H](O)c2cncc(F)c2)C1 [Compound 270, (R)-2-{1-[(1R,3S)-3-methoxycyclohexyl]-1-methylethylamino}-1-(5-fluoro-3-pyridyl)-1-ethanol] | > 75 | 50 to 75 |
| CC1(C)CC[C@H]([C@@H](O)c2cncc(O)c2)N1 [Compound 166, 5-{(S)-[(R)-5,5-dimethyl-2-pyrrolidinyl]hydroxymeth-yl}-3-pyridinol] | 25 to 50 | < 25 |
| O[C@H](c1cncc(F)c1)C12CCC(CCc3ccc(OC(F)(F)F)cc3)(CC1)N2 [Compound 545, (R)-(5-fluoro-3-pryidyl){4-[2-(p-trifluoromethoxyphenyl)ethyl]-7-azabicyclo[2.2.1]hept-1-yl}methanol] | < 25 | < 25 |
| CC(C)(NC[C@H](O)c1cccc(F)c1)[C@H]1CC[C@@H](O)CC1 [Compound 284, (R)-1-(m-fluorophenyl)-2-{1-methyl-1-[(1s,4S)-4-hydroxycyclohexyl]ethyl-amino}-1-ethanol] | 50 to 75 | < 25 |
| CC(C)(C[C@H]1CC[C@H](NC(=O)OC(C)(C)C)CC1)NC[C@H](O)c1cccc(C(F)(F)F)n1 [Compound 459, (1S,4r)-4-(2-{(S)-2-hydroxy-2-[6-(trifluoromethyl)-2-pyridyl]ethylamino}-2-methylpropyl)cyclohexyl 2-methyl-2-propanecabamate] | > 75 | < 25 |
| CC1(C)C[C@H]([C@H](O)c2cccc(F)c2)N1 [Compound 198, (R)-[(R)-4,4-dimethyl-2-azetidinyl](m-fluorophenyl)methanol] | > 75 | 25 to 50 |
| CCC[C@H]1CCC[C@H]([C@@H](O)c2ccc(F)cc2)N1 [Compound 105, (S)-[(2R,6S)-6-propyl-2-piperidyl](p-fluorophenyl)methanol] | 25 to 50 | < 25 |
| O[C@H](c1cccc(F)c1)C12CCC(COc3ccc(Cl)cc3)(CC1)N2 [Compound 441, (R)-{4-[(p-chlorophenoxy)methyl]-7-azabicyclo[2.2.1]hept-1-yl}(m-fluorophenyl)methanol] | > 75 | < 25 |
| CC1(C)C[C@H]([C@@H](O)c2cccc(F)c2)N1 [Compound 201, (S)-[(R)-4,4-dimethyl-2-azetidinyl](m-fluorophenyl)methanol] | < 25 | < 25 |
| O[C@H](c1cncc(F)c1)C12CCC(CCCc3ccccc3)(CC1)N2 [Compound 532, (R)-(5-fluoro-3-pyridyl){4-(3-phenylpropyl)-7-azabicyclo[2.2.1]hept-1-yl}methanol] | 50 to 75 | 25 to 50 |
